IC50 and EC50 data for 25 compounds are collected here from patent US11458138B2 (Novartis AG, priority 2017, dated 2022).

Test [1] concerns Phospho-YAP (Ser127) in JHH-5 cells. The experiment in a line: pYAP HTRF Assay (JHH-5 cells). Format: cell-based. Particulars: 2 hours. The protocol: Briefly, JHH-5 cells are suspended at 0.48×10^6 cells/ml in William's E medium without phenol-red (Thermo Fisher Scientific Gibco catalog number A1217601) supplemented with 10% (v/v) heat-inactivated fetal bovine serum (Thermo Fisher Scientific Gibco catalog number 16140071) and penicillin-streptomycin at 100 U/ml each (Thermo Fisher Scientific Gibco catalog number 15140122). Cells are dispensed into 384well clear bottom culture plates (50 ul/well, at 24000 cells per well, Greiner catalog number 781091), and incubated for 24 hours in a cell culture incubator at 37° C. Test compounds are transferred into culture plates containing JHH-5 cells using an Echo550 (Labcyte) acoustic dispenser (50 nl/well), followed by incubation for 2 hours at 37° C. Lysis buffer (part of CisBio kit catalog number 64YAPPEI) is added to the assay plates as a four-fold concentrate (corresponding to 16 ul/well) and incubated for 30 minutes at room temperature with agitation. Lysate is transferred from culture plates into white low-volume 384well assay plates (12 ul/well, Greiner catalog number 784075), followed by the addition of 3 ul/well of detection antibodies (part of CisBio kit catalog number 64YAPPEI: 1:40 dilution of each pYAP d2 antibody and pYAP cryptate antibody stocks). The plates are sealed and incubated overnight (18 hours) at room temperature protected from light. Plates are read on an EnVision plate reader (Perkin Elmer) at emission wavelengths of 665 nm and 620 nm. The HTRF signal ratio x per well is calculated as [x=Signal(665 nm)/Signal(620 nm)×10000] as specified in the manufacturer's protocol.
(TR-FRET usually uses a lanthanide donor and a delayed reading to cut background.)

Test [2] deals with YAP nuclear translocation in HaCaT cells. The test can be described thus: YAP Translocation Assay (HaCaT Cells). Format: cell-based, human. The conditions noted are these: Homo sapiens, 24 hours. Put shortly: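 HaCaT cells (20,000/well) in DMEM + 10% FBS were plated overnight at 37° C, then exposed to compound for 24 h at 37° C. Cells were fixed with PFA, permeabilized with 0.1% Triton/1.5% BSA and imaged by high-content imaging.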

The next test deals with LATS1 (Homo sapiens (Human), UniProt O95835). The experiment in a line: LATS1 biochemical assay (Table 1A, Compound Examples 1-290; method in the earlier part).
Sequence of LATS1 (O95835 whole entry, looked up): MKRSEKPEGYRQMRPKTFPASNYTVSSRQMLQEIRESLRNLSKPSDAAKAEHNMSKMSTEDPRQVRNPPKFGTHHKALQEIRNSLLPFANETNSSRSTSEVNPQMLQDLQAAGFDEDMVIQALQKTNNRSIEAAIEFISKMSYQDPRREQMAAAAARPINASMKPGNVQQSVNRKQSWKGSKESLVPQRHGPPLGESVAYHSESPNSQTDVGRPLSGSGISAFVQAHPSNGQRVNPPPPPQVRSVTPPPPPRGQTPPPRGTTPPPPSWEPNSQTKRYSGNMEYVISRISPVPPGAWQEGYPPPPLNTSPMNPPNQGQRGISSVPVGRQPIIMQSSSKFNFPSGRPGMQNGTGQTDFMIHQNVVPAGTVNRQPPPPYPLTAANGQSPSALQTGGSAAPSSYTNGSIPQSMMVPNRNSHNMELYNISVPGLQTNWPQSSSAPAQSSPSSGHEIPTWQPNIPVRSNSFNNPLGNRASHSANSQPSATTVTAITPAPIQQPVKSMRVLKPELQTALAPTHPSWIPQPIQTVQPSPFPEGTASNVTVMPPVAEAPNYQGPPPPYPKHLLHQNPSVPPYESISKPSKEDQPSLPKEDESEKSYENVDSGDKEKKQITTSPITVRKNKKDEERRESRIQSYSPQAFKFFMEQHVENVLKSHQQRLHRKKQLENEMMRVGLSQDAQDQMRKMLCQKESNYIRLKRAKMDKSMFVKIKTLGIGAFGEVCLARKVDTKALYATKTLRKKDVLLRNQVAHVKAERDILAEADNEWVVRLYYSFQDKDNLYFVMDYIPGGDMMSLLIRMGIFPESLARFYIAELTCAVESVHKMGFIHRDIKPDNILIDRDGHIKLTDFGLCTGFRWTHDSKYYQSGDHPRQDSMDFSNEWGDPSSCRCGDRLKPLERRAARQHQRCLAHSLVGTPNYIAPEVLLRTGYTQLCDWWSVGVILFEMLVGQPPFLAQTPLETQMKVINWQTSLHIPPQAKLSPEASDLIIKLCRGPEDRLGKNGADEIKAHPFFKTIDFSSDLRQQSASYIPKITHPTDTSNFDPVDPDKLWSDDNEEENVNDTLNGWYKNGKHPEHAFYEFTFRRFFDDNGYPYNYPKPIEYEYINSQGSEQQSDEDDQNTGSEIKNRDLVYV
Sequence of LATS1 (Q7L9L4 whole entry partner, looked up): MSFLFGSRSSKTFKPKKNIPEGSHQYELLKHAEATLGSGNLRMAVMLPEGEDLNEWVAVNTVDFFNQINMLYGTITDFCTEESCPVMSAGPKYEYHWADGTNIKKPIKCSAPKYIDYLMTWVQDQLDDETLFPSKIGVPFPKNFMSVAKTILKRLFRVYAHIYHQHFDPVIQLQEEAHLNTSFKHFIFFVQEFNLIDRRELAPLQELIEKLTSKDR
Test [3] deals with Phospho-YAP (SER127) in HaCaT cells. The test can be described thus: pYAP HTRF Assay (HaCaT Cells). Format: cell-based, human. The conditions noted are these: Homo sapiens, 2 hours. The gist of the method: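 HaCaT cells at 5500 cells/well were cultured 48 hours at 37° C, then treated with compound for 2 hours. Phospho-YAP (Ser127) was detected by HTRF after an overnight (20 hrs) room-temperature incubation, read as the 665 nm/620 nm ratio.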

A word on the IC50: it is the point on the concentration scale where inhibition reaches its midpoint. A high value points to weaker potency. One may read the EC50 as the concentration that produces a half-maximal response. As to `CCN(CC)c1nc(-c2ccncc2)nc2cnccc12` [Example 2], the concentration for half-maximal inhibition (IC50) was greater than 10 µM in test [1], 0.001 µM against LATS1 and 0.067 µM in test [3]. Moreover, in test [2], the EC50 came to 0.584 µM.

On to `CCN(c1nc(-c2ccncc2)nc2cnccc12)C(C)C` [Example 3, N-ethyl-N-(propan-2-yl)-2-(pyridin-4-yl)pyrido[3,4-d]pyrimidin-4-amine], for which the IC50 in test [1] was 1 µM; against LATS1 it was 0.001 µM; in test [3], 0.853 µM. In test [2], this compound yielded a concentration for a half-maximal effect (EC50) of 0.641 µM.

As to `COCC(C)(C)Nc1nc(-c2ccncc2)nc2cnccc12` [Example 7, N-(1-methoxy-2-methylpropan-2-yl)-2-(pyridin-4-yl)pyrido[3,4-d]pyrimidin-4-amine], the IC50 came out at 1.6 µM in test [1], 0.002 µM against LATS1 and 0.165 µM in test [3]. Moreover, in test [2], a half-maximal effect (EC50) was put at 0.733 µM.

Regarding `COCCC(C)(C)Nc1nc(-c2ccncc2)nc2cnccc12` [Example 8, N-(4-methoxy-2-methylbutan-2-yl)-2-(pyridin-4-yl)pyrido[3,4-d]pyrimidin-4-amine], the results for the IC50 (in test [1]; against LATS1; in test [3]) were 1.9 µM, 0.003 µM and 0.198 µM, respectively. This compound gave an EC50 in test [2] of 1.2 µM.

`CCN(C)c1nc(-c2ccncc2)nc2cnccc12` [Example 10, N-ethyl-N-methyl-2-(pyridin-4-yl)pyrido[3,4-d]pyrimidin-4-amine]: the figures for the IC50 (in test [1]; against LATS1; in test [3]) were 8.7 µM, 0.003 µM and 2.96 µM, respectively. The 50% effective concentration (EC50) in test [2] came out at 3.55 µM.

Regarding `CC(C)(Nc1nc(-c2ccncc2)nc2cnccc12)C1CCCCC1` [Example 15, N-(2-cyclohexylpropan-2-yl)-2-(pyridin-4-yl)pyrido[3,4-d]pyrimidin-4-amine], the IC50 in test [1] was determined as 4.1 µM; at LATS1, 0.004 µM; in test [3], 0.66 µM. Also, the half-maximal effective concentration (EC50) in test [2] worked out at 3.48 µM.

As for `CC(C)(CC(=O)O)Nc1nc(-c2ccncc2)nc2cnccc12` [Example 40, 3-methyl-3-{[2-(pyridin-4-yl)pyrido[3,4-d]pyrimidin-4-yl]amino}butanoic acid], the IC50 in test [1] was greater than 10 µM; against LATS1, 0.328 µM; in test [3], greater than 10 µM. Moreover, the half-maximal effective concentration (EC50) in test [2] was greater than 20 µM.

`CC(C)(O)C(C)(Nc1nc(-c2ccncc2)nc2cnccc12)C(F)(F)F` (stereo not shown) [Example 50, 4,4,4-trifluoro-2,3-dimethyl-3-{[2-(pyridin-4-yl)pyrido[3,4-d]pyrimidin-4-yl]amino}butan-2-ol]: the IC50 in test [1] is greater than 10 µM; against LATS1, 0.005 µM; in test [3], 17 µM. Further, the EC50 in test [2] is 3.81 µM.

On to `CC(C)(CCO)Nc1nc(-c2ccncc2)nc2cnccc12` [Example 61, 3-methyl-3-{[2-(pyridin-4-yl)pyrido[3,4-d]pyrimidin-4-yl]amino}butan-1-ol], for which the concentration for half-maximal inhibition (IC50) in test [1] was found to be 1.4 µM; at LATS1 it was 0.001 µM; in test [3], 0.141 µM. Moreover, the EC50 in test [2] turned out to be 0.517 µM.

Turning to `FC(F)(F)C1(Nc2nc(-c3ccncc3)nc3cnccc23)CC1` [Example 64, 2-(pyridin-4-yl)-N-[1-(trifluoromethyl)cyclopropyl]pyrido[3,4-d]pyrimidin-4-amine], the half-inhibitory concentration (IC50) was found to be 2.1 µM in test [1], 0.001 µM against LATS1 and 0.063 µM in test [3]. The EC50 in test [2] was determined as 0.479 µM.

Take `CCC(C)Nc1nc(-c2ccncc2)nc2cnccc12` (stereo not shown) [Example 68, N-(butan-2-yl)-2-(pyridin-4-yl)pyrido[3,4-d]pyrimidin-4-amine]: the concentration for half-maximal inhibition (IC50) in test [1] came out at 3.5 µM; at LATS1, 0.002 µM; in test [3], 1.23 µM. The same compound showed an EC50 in test [2] of 3.39 µM.

For the compound `C[C@]1(Nc2nc(-c3ccncc3)nc3cnccc23)C[C@@H](O)C1` [Example 70, (1r,3s)-3-methyl-3-{[2-(pyridin-4-yl)pyrido[3,4-d]pyrimidin-4-yl]amino}cyclobutan-1-ol], the IC50 came out at 4 µM in test [1], 0.003 µM at LATS1 and 0.422 µM in test [3]. For the same compound, a half-maximal effect in test [2] (EC50) was put at 1.68 µM.

Consider `CC(C)(O)C(C)(C)Nc1nc(-c2ccncc2)nc2cnccc12` [Example 71, 2,3-dimethyl-3-{[2-(pyridin-4-yl)pyrido[3,4-d]pyrimidin-4-yl]amino}butan-2-ol], for which the IC50 in test [1] is greater than 10 µM; at LATS1, 0.004 µM; in test [3], 0.026 µM. Besides, a half-maximal response in test [2] (EC50) required 1.57 µM.

With `CC(C)(C)CC(C)(C)Nc1nc(-c2ccncc2)nc2cnccc12` [Example 72, 2-(pyridin-4-yl)-N-(2,4,4-trimethylpentan-2-yl)pyrido[3,4-d]pyrimidin-4-amine], the IC50 turned out to be 4.6 µM in test [1], 0.004 µM against LATS1 and 1.17 µM in test [3]. Further, in test [2], the concentration giving a half-maximal response (EC50) was 3.65 µM.

As to `CC(C)(Cc1c[nH]c2ccccc12)Nc1nc(-c2ccncc2)nc2cnccc12` [Example 79, N-[1-(1H-indol-3-yl)-2-methylpropan-2-yl]-2-(pyridin-4-yl)pyrido[3,4-d]pyrimidin-4-amine], the half-maximal inhibitory concentration (IC50) came to 2.1 µM in test [1], 0.011 µM on LATS1 and 0.765 µM in test [3]. Further, in test [2], a half-maximal response (EC50) required 3.87 µM.

As to `CC(Nc1nc(-c2ccncc2)nc2cnccc12)(C(=O)O)C(F)(F)F` (stereo not shown) [Example 84, 3,3,3-trifluoro-2-methyl-2-{[2-(pyridin-4-yl)pyrido[3,4-d]pyrimidin-4-yl]amino}propanoic acid], the half-inhibitory concentration (IC50) is greater than 10 µM in test [1], 0.021 µM against LATS1 and 65.2 µM in test [3]. The compound further had a concentration giving a half-maximal response (EC50) in test [2] greater than 20 µM.

As for `OCCNc1nc(-c2ccncc2)nc2cnccc12` [Example 85, 2-{[2-(pyridin-4-yl)pyrido[3,4-d]pyrimidin-4-yl]amino}ethan-1-ol], the half-maximal inhibitory concentration (IC50) in test [1] was greater than 10 µM; against LATS1, 0.025 µM; in test [3] it was 31 µM. Also, the EC50 in test [2] stood at 9.81 µM.

On to `CC1(Nc2nc(-c3ccncc3)nc3cnccc23)CC1` [Example 99, N-(1-methylcyclopropyl)-2-(pyridin-4-yl)pyrido[3,4-d]pyrimidin-4-amine], for which the values for the IC50 (in test [1]; against LATS1; in test [3]) were 5.7 µM, 0.001 µM and 0.113 µM, respectively. Also, a half-maximal response in test [2] (EC50) required 0.606 µM.

Regarding `CC(C)(CN)Nc1nc(-c2ccncc2)nc2cnccc12` [Example 110, N-(1-amino-2-methylpropan-2-yl)-2-(pyridin-4-yl)pyrido[3,4-d]pyrimidin-4-amine], the values for the IC50 (in test [1]; on LATS1; in test [3]) were 1.5 µM, 0.002 µM and 2.97 µM, respectively. The midpoint of the response in test [2], the EC50, lay at 15.3 µM.

As for `CC(C)(C)Nc1nc(-c2ccnc(N)c2)nc2cnccc12` [Example 112, 4-[4-(tert-butylamino)pyrido[3,4-d]pyrimidin-2-yl]pyridin-2-amine], the half-inhibitory concentration (IC50) in test [1] is 3.2 µM; against LATS1, 0.002 µM; in test [3], 1.21 µM. The compound also registered an EC50 in test [2] of 3.52 µM.

With `CC(C)(C)Nc1nc(-c2c[nH]nc2C(F)(F)F)nc2cnccc12` [Example 115, N-tert-butyl-2-[3-(trifluoromethyl)-1H-pyrazol-4-yl]pyrido[3,4-d]pyrimidin-4-amine], the IC50 in test [1] turned out to be 3.4 µM; on LATS1 it was 0.002 µM; in test [3], 1.05 µM. Also, the half-maximal effective concentration (EC50) in test [2] is 1.66 µM.

`CC(C)(C)Nc1nc(-c2ccncc2Cl)nc2cnccc12` [Example 116, N-tert-butyl-2-(3-chloropyridin-4-yl)pyrido[3,4-d]pyrimidin-4-amine]: the IC50 in test [1] worked out at 2.2 µM; at LATS1 it was 0.003 µM; in test [3], 0.782 µM. The same compound displayed an EC50 in test [2] of 2.18 µM.

Turning to `Cc1cnccc1-c1nc(NC(C)(C)C)c2ccncc2n1` [Example 117, N-tert-butyl-2-(3-methylpyridin-4-yl)pyrido[3,4-d]pyrimidin-4-amine], the concentration for half-maximal inhibition (IC50) in test [1] is greater than 10 µM; at LATS1, 0.004 µM; in test [3] it was 2.31 µM. This compound also had an EC50 in test [2] of 4.47 µM.

In the case of `CCC(C)(C)Nc1nc(-c2ccncc2Cl)nc2cnccc12` [Example 118, 2-(3-chloropyridin-4-yl)-N-(2-methylbutan-2-yl)pyrido[3,4-d]pyrimidin-4-amine], the IC50 was 4 µM in test [1], 0.005 µM against LATS1 and 2.05 µM in test [3]. This compound returned an EC50 in test [2] of 5.01 µM.

On to `CC(C)N(C)c1nc(-c2ccncc2F)nc2cnccc12` [Example 122, 2-(3-fluoropyridin-4-yl)-N-methyl-N-(propan-2-yl)pyrido[3,4-d]pyrimidin-4-amine], for which the IC50 amounted to 8 µM in test [1], 0.015 µM at LATS1 and 7.4 µM in test [3]. This compound also registered a concentration giving a half-maximal response (EC50) in test [2] of 5.8 µM.
